Reference: US9018135B2, “Pesticidal compositions” (Syngenta Participations AG, priority 2010, dated 2015)
Like-named read-outs stand apart in the source and are kept apart here.

Legend:
[1] = test system: Nilaparvata lugens (brown plant hopper, BPH); experiment: Activity against Nilaparvata lugens (brown plant hopper, BPH) on sprayed rice plants, % mortality (Abbott); type: in vivo; details: 168 h
Description: Eight replicates (pots with rice plants) were sprayed with respective test solutions. Test solutions contained the formulated test compound and the PGR Moddus® at different ratios. 4 pots were infested with plant hopper nymphs right after application. 7d after application BPH mortality and phytotoxicity were evaluated.

[2] = test system: Rhopalosiphum padi (cereal aphid); experiment: Activity against Rhopalosiphum padi (cereal aphid) on sprayed wheat plants, % mortality (Abbott)
Description: Activity Against Rhopalosiphum padi (Cereal Aphid) and Crop Safety
The experiment was divided into two parts, one half of the plants was used for the aphid bioassay the other half was not infested with aphids and kept for plant growth evaluation. One replicate consisted of 4 wheat plants per pot. 5 replicates were infested with a mixed population of cereal aphids 6 days after seeding. 9 days after seeding all wheat plants (10 replicates) were sprayed with respective test solutions. Test solutions contained the formulated test compound (25 ppm), the adjuvant Mero (0.1% v/v), and the plant growth regulator (PGR) CCC (chlormequat-chloride, Cyclocel®) or trinexapac ethyl (Moddus®). 6 and 17d after application aphid mortality and phytotoxicity were evaluated. Efficacy was calculated with the aid of Abbott's formula. Assessment on phytotoxicity was done by counting the number of leaves bent down due to necrosis per pot. Additionally the average plant height per replicate was measured.

melting point	SMILES	further results
183 to 186 °C	CON1CCC2(CC1)C(O)=C(c1cc(C)c(C)cc1C)C(=O)N2C	
176 to 178 °C	COCON1C(=O)C(c2c(C)cc(Cl)cc2C)=C(O)C12CCN(OC)CC2	
135 to 137 °C	CON1CCC2(CC1)C(O)=C(c1c(C)cc(C)cc1C)C(=O)N2OCCOC1CCCCO1 (centres unmarked)	
161 to 164 °C	COCCON1C(=O)C(c2c(C)cc(Cl)cc2C)=C(O)C12CCN(OC)CC2	
169 to 172 °C	CON1CCC2(CC1)C(O)=C(c1c(C)cc(C)cc1C)C(=O)N2OCC1CCCCC1	
218 to 221 °C	CCN1C(=O)C(c2c(C)cc(C)cc2C)=C(O)C12CCN(OC)CC2	
88 to 92 °C	CON1CCC2(CC1)C(O)=C(c1c(C)cc(Cl)cc1C)C(=O)N2OC	
191 to 193 °C	CON1CCC2(CC1)C(O)=C(c1cc(C)c(C)cc1Br)C(=O)N2C	
223 to 225 °C	CON1CCC2(CC1)C(O)=C(c1c(C)cc(C)cc1C)C(=O)N2CC1CC1	
101 to 103 °C	CCOC(=O)OC1=C(c2c(C)cc(C)cc2C)C(=O)N(CC)C12CCN(OC)CC2	

Second part, the molecule before the results:

SMILES	melting point	further results
CON1CCC2(CC1)C(O)=C(c1cc(C)c(C)cc1Cl)C(=O)N2C	191 to 192 °C	
COCON1C(=O)C(c2cc(Br)c(F)cc2C)=C(O)C12CCN(OC)CC2	64 to 67 °C	
CON1CCC2(CC1)C(O)=C(c1cc(Br)c(C)cc1C)C(=O)N2OC	86 to 87 °C	
COCON1C(=O)C(c2cc(C)ccc2C)=C(OC)C12CCN(OC)CC2	91 to 93 °C	
CON1CCC2(CC1)C(O)=C(c1c(C)cc(Cl)cc1C)C(=O)N2OC1CCCO1 (centres unmarked)	137 to 139 °C	
CON1CCC2(CC1)C(O)=C(c1cc(C)ccc1C)C(=O)N2C	121 to 123 °C	
CCOC(=O)OC1=C(c2c(F)ccc(C)c2Cl)C(=O)N(OCOC)C12CCN(OC)CC2	116 to 119 °C	
COCCON1C(=O)C(c2cc(Br)c(C)cc2C)=C(O)C12CCN(OC)CC2	63 to 64 °C	
CCOC(=O)OC1=C(c2cc(C)c(C)cc2Cl)C(=O)N(C)C12CCN(OC)CC2	149 to 150 °C	
COCON1C(=O)C(c2cc(C)ccc2C)=C(OC(=O)CC(C)(C)C)C12CCN(OC)CC2	93 to 95 °C	
CON1CCC2(CC1)C(O)=C(c1cc(Br)c(C)cc1C)C(=O)N2C	182 to 183 °C	
COCON1C(=O)C(c2c(F)ccc(C)c2Cl)=C(O)C12CCN(OC)CC2	155 to 158 °C	
COCON1C(=O)C(c2c(C)cc(-c3ccc(Cl)cc3)cc2C)=C(O)C12CCN(OC)CC2	128 °C (dec.)	
COCCON1C(=O)C(c2cc(Br)c(F)cc2C)=C(O)C12CCN(OC)CC2	71 to 74 °C	
CCOC(=O)OC1=C(c2cc(C)c(C)cc2Br)C(=O)N(C)C12CCN(OC)CC2	158 to 159 °C	
CCOC(=O)OC1=C(c2c(C)cc(Cl)cc2C)C(=O)N(C)C12CCN(OC)CC2 [P1.29]		mortality at 12.5 ppm ([1]; read-out: Efficacy (% mortality) against brown plant hopper (Nilaparvata lugens), 12.5 ppm AI with Moddus, ratio AI:PGR 0.9:1, 7 d after application): 80%; mortality at 12.5 ppm ([1]; read-out: Efficacy (% mortality) against brown plant hopper (Nilaparvata lugens), 12.5 ppm AI, no PGR, 7 d after application): 98%; mortality at 25 ppm ([1]; read-out: Efficacy (% mortality) against brown plant hopper (Nilaparvata lugens), 25 ppm AI with Moddus, ratio AI:PGR 1.9:1, 7 d after application): 97%; mortality at 25 ppm ([1]; read-out: Efficacy (% mortality) against brown plant hopper (Nilaparvata lugens), 25 ppm AI, no PGR, 7 d after application): 98%; mortality at 50 ppm ([1]; read-out: Efficacy (% mortality) against brown plant hopper (Nilaparvata lugens), 50 ppm AI with Moddus, ratio AI:PGR 1.25:1, 7 d after application): 98%; mortality at 50 ppm ([1]; read-out: Efficacy (% mortality) against brown plant hopper (Nilaparvata lugens), 50 ppm AI, no PGR, 7 d after application): 100%; mortality at 100 ppm ([1]; read-out: Efficacy (% mortality) against brown plant hopper (Nilaparvata lugens), 100 ppm AI with Moddus, ratio AI:PGR 7.5:1, 7 d after application): 100%; mortality at 100 ppm ([1]; read-out: Efficacy (% mortality) against brown plant hopper (Nilaparvata lugens), 100 ppm AI, no PGR, 7 d after application): 100%; mortality at 200 ppm ([1]; read-out: Efficacy (% mortality) against brown plant hopper (Nilaparvata lugens), 200 ppm AI with Moddus, ratio AI:PGR 15:1, 7 d after application): 100%; mortality at 200 ppm ([1]; read-out: Efficacy (% mortality) against brown plant hopper (Nilaparvata lugens), 200 ppm AI, no PGR, 7 d after application, Abbott): 100%
CCOC(=O)OC1=C(c2c(C)cc(Cl)cc2C)C(=O)N(OC)C12CCN(OC)CC2	122 to 125 °C	
CCOC(=O)OC1=C(c2c(C)cc(C)cc2C)C(=O)N(C)C12CCN(OC)CC2 [P1.2, Carbonic acid ethyl ester 8-methoxy-1-methyl-2-oxo-3-(2,4,6-trimethyl-phenyl)-1,8-diaza-spiro[4.5]dec-3-en-4-yl ester]		Efficacy (% mortality) against cereal aphids (Rhopalosiphum padi), 6 DAA ([2]; test compound 25 ppm + Mero 0.1% v/v, tank mix with PGR Cycocel, ratio AI:PGR 1:20, 6 DAA): 97%; Efficacy (% mortality) against cereal aphids (Rhopalosiphum padi), 17 DAA ([2]; test compound 25 ppm + Mero 0.1% v/v, tank mix with PGR Cycocel, ratio AI:PGR 1:20, 17 DAA): 93%; Efficacy (% mortality) against cereal aphids (Rhopalosiphum padi), 6 DAA ([2]; test compound 25 ppm + Mero 0.1% v/v, tank mix with PGR Moddus, ratio AI:PGR 1:10, 6 DAA): 94%; Efficacy (% mortality) against cereal aphids (Rhopalosiphum padi), 17 DAA ([2]; test compound 25 ppm + Mero 0.1% v/v, tank mix with PGR Moddus, ratio AI:PGR 1:10, 17 DAA): 90%; Efficacy (% mortality) against cereal aphids (Rhopalosiphum padi), 6 DAA ([2]; test compound 25 ppm + adjuvant Mero 0.1% v/v, no PGR, 6 days after application, Abbott): 97%; Efficacy (% mortality) against cereal aphids (Rhopalosiphum padi), 17 DAA ([2]; test compound 25 ppm + adjuvant Mero 0.1% v/v, no PGR, 17 days after application, Abbott): 70%; mortality at 12.5 ppm ([1]; 12.5 ppm AI with Moddus, ratio AI:PGR 0.9:1, 7 d after application, read-out: Efficacy (% mortality) against brown plant hopper (Nilaparvata lugens)): 5%; mortality at 12.5 ppm ([1]; 12.5 ppm AI, no PGR, 7 d after application, read-out: Efficacy (% mortality) against brown plant hopper (Nilaparvata lugens)): 65%; mortality at 25 ppm ([1]; 25 ppm AI with Moddus, ratio AI:PGR 1.9:1, 7 d after application, read-out: Efficacy (% mortality) against brown plant hopper (Nilaparvata lugens)): 10%; mortality at 25 ppm ([1]; 25 ppm AI, no PGR, 7 d after application, read-out: Efficacy (% mortality) against brown plant hopper (Nilaparvata lugens)): 37%; mortality at 50 ppm ([1]; 50 ppm AI with Moddus, ratio AI:PGR 1.25:1, 7 d after application, read-out: Efficacy (% mortality) against brown plant hopper (Nilaparvata lugens)): 33%; mortality at 50 ppm ([1]; 50 ppm AI, no PGR, 7 d after application, read-out: Efficacy (% mortality) against brown plant hopper (Nilaparvata lugens)): 62%; mortality at 100 ppm ([1]; 100 ppm AI with Moddus, ratio AI:PGR 7.5:1, 7 d after application, read-out: Efficacy (% mortality) against brown plant hopper (Nilaparvata lugens)): 77%; mortality at 100 ppm ([1]; 100 ppm AI, no PGR, 7 d after application, read-out: Efficacy (% mortality) against brown plant hopper (Nilaparvata lugens)): 80%; mortality at 200 ppm ([1]; 200 ppm AI with Moddus, ratio AI:PGR 15:1, 7 d after application, read-out: Efficacy (% mortality) against brown plant hopper (Nilaparvata lugens)): 87%; mortality at 200 ppm ([1]; 200 ppm AI, no PGR, 7 d after application, Abbott, read-out: Efficacy (% mortality) against brown plant hopper (Nilaparvata lugens)): 90%
CCOC(=O)OC1=C(c2cc(C)ccc2C)C(=O)N(C)C12CCN(OC)CC2	96 to 110 °C	
